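Five compound concentrations were applied to cells in 96-well plates for 48 hours; endpoints were derived by simple linear interpolation of the resulting dose-response curve. Here, GI50 denotes the concentration required for 50% inhibition of growth. TGI marks complete inhibition of growth.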 Where a SMILES comes first, the peptide text is derived from it. The star is where a group is joined. Boc = CC(C)(C)OC(=O)*
Assays:
Test in all cases: NCI-60 cell line screen, 48 h
UACC-62 melanoma = system: UACC-62 melanoma
HOP-62 NSCLC = system: HOP-62 NSCLC
LOX IMVI melanoma = system: LOX IMVI melanoma
PC-3 prostate = system: PC-3 prostate
HT29 colon = system: HT29 colon
A498 renal = system: A498 renal
NCI-H23 lung = system: NCI-H23 lung
ACHN renal = system: ACHN renal
MOLT-4 leukemia = system: MOLT-4 leukemia

SMILES	TGI (UACC-62 melanoma) [µM]	TGI (HOP-62 NSCLC) [µM]	TGI (LOX IMVI melanoma) [µM]	TGI (PC-3 prostate) [µM]	TGI (HT29 colon) [µM]	TGI (A498 renal) [µM]	TGI (NCI-H23 lung) [µM]	TGI (ACHN renal) [µM]	TGI (MOLT-4 leukemia) [µM]	GI50 (UACC-62 melanoma) [µM]	GI50 (MOLT-4 leukemia) [µM]	GI50 (PC-3 prostate) [µM]	GI50 (HT29 colon) [µM]	GI50 (A498 renal) [µM]	GI50 (NCI-H23 lung) [µM]	GI50 (ACHN renal) [µM]
N#CC(C#N)=Cc1c(O)ccc2ccccc12	31.1	50.2	26.6	33.6	41.1	31.1	26.9	23.9	–	–	–	–	–	–	–	–
COc1ccc(Oc2nc3ccc(C(F)(F)F)cc3nc2-c2ccccc2)cc1	> 100	> 100	> 100	> 100	> 100	> 100	–	> 100	> 100	–	–	–	–	–	–	–
CCCC(CC)c1c(O)c(O)c(C(CC)CCC)c(C(CC)CCC)c1C(CC)CCC (centres undefined)	> 10	> 10	> 10	> 10	> 10	> 10	> 10	> 10	–	–	–	–	–	–	–	–
CN1C/C(=C\c2ccc(Cl)cc2)C(=O)/C(=C/c2ccc(Cl)cc2)C1	8.35	> 28.5	0.612	> 100	0.824	3.2	> 22.3	> 25.3	–	–	–	–	–	–	–	–
Cc1nccn1S(=O)(=O)c1ccc(Br)cc1Br	> 100	–	> 100	> 100	> 100	> 100	> 100	> 100	96.1	–	–	–	–	–	–	–
Cc1cc2ccccc2n1CC(=O)N1CCCC1	> 100	> 100	> 100	> 100	> 100	–	> 100	> 100	> 100	–	–	–	–	–	–	–
COc1ccccc1NC(=S)N/N=C(/C)c1ccccn1	–	36.7	67.2	> 100	> 100	–	> 100	12.9	> 100	–	–	–	–	–	–	–
Cc1ccc(C)c(COCCOCn2cc(Br)c(N)nc2=O)c1	> 100	> 100	> 100	> 100	–	> 100	> 100	> 100	> 100	–	–	–	–	–	–	–
COC(=O)C(Cc1c[nH]c2ccccc12)NC(=O)C(Cc1c[nH]c2ccccc12)NC(=O)C(Cc1c[nH]c2ccccc12)NC(=O)C(Cc1c[nH]c2ccccc12)NC(=O)OC(C)(C)C (centres undefined) (Boc-WWWW-OMe; configuration not given here)	38.4	67	28	96.5	49	–	92.3	> 100	20.7	–	–	–	–	–	–	–
CC(=Nc1c2ccccc2nc2ccccc12)N(C)C	32.9	66.2	26.7	46.8	27.4	–	41.1	76.4	44.8	–	–	–	–	–	–	–
CCOC(=O)C(NC(=O)CC(C)C)(Nc1ccc(C(F)(F)F)cc1)C(F)(F)F (centres undefined)	–	> 100	> 100	> 100	> 100	–	> 100	91	> 100	–	–	–	–	–	–	–
O=C(Nc1nnc(-c2ccccc2)o1)C(SC(=S)N1CCOCC1)c1ccccc1 (centres undefined)	–	> 100	> 100	> 100	> 100	89.6	69	> 100	83.1	–	–	–	–	–	–	–
O=c1[nH]c(=O)n(COCc2ccccc2)c2ccc(Br)cc12	> 100	–	> 100	–	> 100	> 100	–	> 100	> 100	–	–	–	–	–	–	–
C[C@H](CC[C@@H](O)C(C)(C)O)[C@H]1CC[C@@]2(C)[C@@H]3CC=C4[C@@H](CC[C@H](O)C4(C)C)[C@]3(C)C(=O)C[C@]12C	–	> 50	> 50	45.4	> 50	> 50	> 50	> 50	> 50	–	–	–	–	–	–	–
Cc1cccc2nc3cccc(C(=O)NCCC[N+](C)(CCCNC(=O)c4cccc5nc6cccc(C)c6nc45)Cc4c([N+](=O)[O-])ncn4C)c3nc12	> 1100	–	18.8	> 1100	96.5	> 1100	> 1100	> 1100	–	38.8	8.38	6.47	1.96	> 1100	370	3.59
COC(=O)/C=C\C(C#N)(C#N)N=Cc1ccc(C)s1	31	28.5	3.19	6.72	–	34.7	6.69	3.66	5.82	–	–	–	–	–	–	–
Cn1c(-c2ccc[se]2)ccc1-c1ccc(CO)[se]1	> 100	–	> 64.1	> 100	–	0.14	> 84.3	> 71.5	98.2	–	–	–	–	–	–	–
O=C(NCCCCNCCCNC(=O)c1ccccc1)c1ccccc1	> 100	> 100	–	> 100	> 100	> 100	> 100	> 100	> 100	–	–	–	–	–	–	–
Cc1ccc(S(=O)(=O)NC(=O)NCCC(=O)O)cc1	> 100	> 100	> 100	> 100	> 100	–	> 100	> 100	> 100	–	–	–	–	–	–	–
CC(C)(C)n1c(=O)n(C(=O)C(Cl)(Cl)Cl)n(C(=O)C(Cl)(Cl)Cl)c1=O	> 100	> 100	> 100	> 100	> 100	–	> 100	> 100	> 100	–	–	–	–	–	–	–
CO/C(=N\N=C\c1ccc(Cl)cc1Cl)c1ccncc1	–	> 10	> 10	> 10	> 10	–	> 10	> 10	> 10	–	–	–	–	–	–	–
O=C(NC1(C(=O)NNc2nnc(-c3ccccc3)c(-c3ccccc3)n2)C(c2ccccc2)C(c2ccccc2)=NN1c1ccccc1)c1ccccc1 (centres undefined)	> 100	> 100	–	> 100	> 100	> 100	> 100	> 100	> 100	–	–	–	–	–	–	–
COc1ccc(-c2nc(-c3cc4ccccc4oc3=O)cs2)cc1	> 100	96.4	> 100	> 100	> 100	–	–	> 100	> 100	–	–	–	–	–	–	–
O=C(c1ccccc1)c1c(C(F)(F)F)n([O-])c2cc(Cl)c(Cl)cc2[n+]1=O	8.28	0.909	2.46	4.03	0.966	–	1.11	2.03	1.56	–	–	–	–	–	–	–
O=C(NNc1cn[nH]c(=O)c1Cl)/C(=C/c1ccc2c(c1)OCO2)NC(=O)c1ccccc1	> 100	> 100	> 100	> 100	> 100	–	> 100	> 100	> 100	–	–	–	–	–	–	–

From PubChem BioAssay (NCI)
